Patent US6784175B2, “Use of substituted 1-amino-5-phenylpentane-3-ol and/or 1-amino-6-phenylhexane-3-ol compounds as medicaments” (Gruenenthal GmbH, priority 2000, dated 2004)
Counter-ions that a name gives are not always drawn.

System: (+)-MK801 binding site of the ionotropic NMDA receptor
Assay: (3H)-(+)-MK801 receptor bonding test on rat cerebral membrane homogenates
Details: 1 nmol/l (3H)-(+)-MK801, rat brain membrane homogenate; for Percentage inhibition of (3H)-(+)-MK801 binding at 10 μM: 10 μmol/l compound, triple determinations; for Ki: calculated from IC50 by Cheng-Prusoff equation
Protocol: Research to determine the NMDA antagonistic effect of each compound in general formula I was carried out on cerebral membrane homogenates (homogenate of rat brain without cerebellum, pons and medulla oblongata taken from male Wistar rats (Charles River, Sulzfeld, Germany)).
For this purpose, after separating the cerebellum, pons and medulla oblongata, freshly prepared rat brains were macerated in 50 mmol/l of tris/HCl (pH 7.7) with a Polytron homogeniser (model PT3000, Kinematika AG, Littau, Switzerland) at 6000 revolutions per minute (rpm) for 1 minute with ice cooling and centrifuged for 15 minutes at 4° C. and 60,000 g. After decanting and discarding the supernatant, again placing in 50 mmol/l of tris/HCl (pH 7.7) and macerating the membrane pellet with a homogeniser at 2000 rpm for 1 minute, it was centrifuged again for 15 minutes at 4° C. and 60,000 g. The supernatant was again discarding and the membrane pellet homogenised (2000 rpm for 1 minute) in 50 mmol/l of tris/HCl (pH 7.7) and frozen in aliquots at −70° C.
For the receptor bonding test, each aliquot was defrosted and then centrifuged for 15 minutes at 4° C. and 60,000 g. After decanting and discarding the supernatant, the membrane pellet was taken up with bonding test buffer and homogenised (2000 rpm for 1 minute). The bonding test buffer was 5 mmol/l tris/HCl (pH 7.7) supplemented with 30 μmol/l of glycine and 100 μmol/l of glutamic acid.
1 nmol/l of (^3H)-(+)-MK801 ((5R, 10S)-(+)-5-methyl-10,11-dihydro-5H-dibenzo(a,d)cycloheptane-5,10-imine was used as a radioactively marked ligand (NET-972, NEN, Cologne Germany). The proportion of unspecific bonding was determined in the presence of 10 μmol/l of non-radioactively marked (+)-MK801 (RBI/Sigma, Deisenhofen, Germany). In further batches, each of the compounds of general formula I were added in series of concentrations and the displacement of the radioactive ligand out of its specific bond to the NMDA receptor determined. All the batches were subjected to triple determinations. The batches were each incubated for 40 minutes at 25° C. in a water bath and then harvested for determination of the radioactive ligand bound to the cerebral membrane homogenate by means of filtration through glass-fibre filters (GF/B) (Whatman GF/B, Hassel, Munich, Germany). The radioactivity retained by the glass-fibre filter discs was measured in a β counter (Packard TRI-CARB Liquid Scintillation Analyser 2000CA, Packard Instrument, Meriden, Conn. 06450, USA) after adding a scintillator (“Ready Protein” scintillator, Beckmann Coulter GmhH, Krefeld, Germany).
The percentage inhibition of the specific bonding of the ligand (^3H)-(+)-MK801 in the presence of 10 μmol/l of each compound of general formula I resulting from the triple batches is used as a measure of the affinity of the compound for the (+)-MK801 binding site of the ionotropic NMDA receptor. From batches with concentration series of these compounds of general formula I, the IC50 values (concentration of substituted compounds with 50% displacement of radioactive ligand out of its specific bond) were calculated in accordance with the law of mass action using non-linear regression. From these IC50 values, the Kj values were calculated in accordance with the Cheng-Prusoff equation (Y. Cheng, W. H. Prusoff, 1973, Biochem. Pharmacol., 22, pp 3099-3108).

SMILES	Percentage inhibition of (3H)-(+)-MK801 binding at 10 μM (hydrochloride, 10 µM) [%]	Ki (hydrochloride) [nM]	Percentage inhibition of (3H)-(+)-MK801 binding at 10 μM [%]	Ki [nM]
Cc1ccccc1C(C1CCCCC1(O)CCc1ccccc1Cl)N(C)C (single isomer, unassigned; (+)) [Example 49, (+)-15-1-[2-(2-chlorophenyl)ethyl]-2-(dimethylamino-o-tolylmethylcyclohexanol), hydrochloride]	93	1300		
CN(C)C(c1ccccc1)C1CCCCC1(O)CCCc1ccccc1.Cl (single isomer, unassigned; (+)) [Example 51, (+)-2-(dimethylaminophenylmethyl)-1-(3-phenylpropyl)cyclohexanol, hydrochloride]	80	2300		
CN(C)C(c1ccccc1Cl)C1CCCCC1(O)CCc1ccccc1F.Cl (single isomer, unassigned; (+)) [Example 53, (+)-2-[(2-chlorophenyl)dimethylaminomethyl]-1-[2-(2-fluorophenyl)ethyl]cyclohexanol, hydrochloride]	104	500		
Cc1ccccc1C(C1CCCCC1(O)CCc1ccccc1Cl)N(C)C (single isomer, unassigned; (-)) [Example 48, (−)-15-1-[2-(2-chlorophenyl)ethyl]-2-(dimethylamino-o-tolylmethylcyclohexanol), hydrochloride]	99	400		
CN(C)C(c1ccccc1)C1CCCCC1(O)CCCc1ccccc1.Cl (single isomer, unassigned; (-)) [Example 50, (−)-2-(dimethylaminophenylmethyl)1-(3-phenylpropyl)cyclohexanol, hydrochloride]	87	600		
CN(C)C(c1ccccc1Cl)C1CCCCC1(O)CCc1ccccc1F.Cl (single isomer, unassigned; (-)) [Example 52, (−)-2-[(2-chlorophenyl)dimethylaminomethyl]-1-[2-(2-fluorophenyl)ethyl]cyclohexanol, hydrochloride]	105	200		
Cc1ccccc1C(C1CCCCC1(O)CCc1cccc(Cl)c1)N(C)C.Cl (centres unmarked) [Example 16, 1-[2-(3-chlorophenyl)ethyl]-2-(dimethylamino-o-tolylmethyl)cyclohexanol, hydrochloride]	92	1900		
CN(C)C(c1ccccc1F)C1CCCCC1(O)CCc1ccc(F)cc1.Cl (centres unmarked) [Example 17, 2-[dimethylamino-(2-fluorophenyl)methyl]-1-[2-(4-fluorophenyl)ethyl]cyclohexanol, hydrochloride]			54	5800
Cc1ccccc1C(C1CCCCC1(O)CCc1ccc(F)cc1)N(C)C.Cl (centres unmarked) [Example 18, 2-(dimethylamino-o-tolylmethyl)-1-[2-(4-fluorophenyl)ethyl]cyclohexanol, hydrochloride]			54	6100
Cc1cccc(C(C2CCCCC2(O)CCc2ccccc2Cl)N(C)C)c1.Cl (centres unmarked) [Example 20, 1-[2-(2-chlorophenyl)ethyl]-2-(dimethylamino-m-tolylmethyl)cyclohexanol, hydrochloride]			62	4300
CN(C)C(c1ccccc1F)C1CCCCC1(O)CCc1cccc(Cl)c1.Cl (centres unmarked) [Example 21, 1-[2-(3-chlorophenyl)ethyl]-2-(dimethylamino-(2-fluorophenyl)methyl]cyclohexanol, hydrochloride]			90	2100
CN(C)C(c1cccc(F)c1)C1CCCCC1(O)CCc1ccccc1Cl.Cl (centres unmarked) [Example 22, 1-[2-(2-chlorophenyl)ethyl]-2-(dimethylamino-(3-fluorophenyl)methyl]cyclohexanol, hydrochloride]			74	3000
Cc1ccccc1C(C1CCCCC1(O)CCc1ccccc1Cl)N1CCOCC1.Cl (centres unmarked) [Example 24, 1-[2-(2-chlorophenyl)ethyl]-2-(morpholine-4-yl-o-tolylmethyl)cyclohexanol, hydrochloride]			48	3700
Cc1ccccc1C(C1CCCCC1(O)CCc1ccccc1Cl)N1CCCCC1.Cl (centres unmarked) [Example 25, 1-[2-(2-chlorophenyl)ethyl]-2-(piperidine-1-yl-o-tolylmethyl)cyclohexanol, hydrochloride]			89	1400
Cc1ccccc1C(C1CCCCC1(O)CCc1cccc(Cl)c1)N(C)C.Cl (centres unmarked) [Example 26, 1-[2-(3-chlorophenyl)ethyl]-2-(dimethylamino-o-tolylmethyl)cyclohexanol, hydrochloride]	89	1300		
CN(C)C(c1ccccc1C(F)(F)F)C1CCCCC1(O)CCc1ccccc1.Cl (centres unmarked) [Example 27, 2-[dimethylamino-(2-trifluoromethylphenyl)methyl]-1-phenethylcyclohexanol, hydrochloride]			67	4200
COc1ccccc1C(C1CCCCC1(O)CCc1ccccc1F)N(C)C.Cl (centres unmarked) [Example 28, 2-[dimethylamino-(2-methoxyphenyl)methyl]-1-[2-(2-fluorophenyl)ethyl]cyclohexanol, hydrochloride]			82	2500
CN(C)C(c1ccccc1F)C1CCCCC1(O)CCc1ccccc1F.Cl (centres unmarked) [Example 29, 2-[dimethylamino-(2-fluorophenyl)methyl]-1-[2-(2-fluorophenyl)ethyl]cyclohexanol, hydrochloride]			104	300
Cc1ccccc1C(C1CCCCC1(O)CCc1ccccc1F)N(C)C.Cl (centres unmarked) [Example 30, 2-(dimethylamino-o-tolylmethyl)-1-[2-(2-fluorophenyl)ethyl]cyclohexanol, hydrochloride]			105	300
Cc1ccccc1C(C1CCCCC1(O)CCc1ccccc1F)N1CCCC1.Cl (centres unmarked) [Example 31, 1-[2-(2-fluorophenyl)ethyl]-2-(pyrrolidine-1-yl-o-tolylmethyl)cyclohexanol, hydrochloride]			99	100
CN(C)C(c1ccccc1Br)C1CCCCC1(O)CCc1ccccc1Cl.Cl (centres unmarked) [Example 32, 2-[(2-bromophenyl)dimethylaminomethyl]-1-[2-(2-chlorophenyl)ethyl]cyclohexanol, hydrochloride]			96	700
CN(C)C(c1ccccc1Cl)C1CCCCC1(O)CCc1ccccc1Cl.Cl (centres unmarked) [Example 33, 2-[(2-chlorophenyl)dimethylaminomethyl]-1-[2-(2-chlorophenyl)ethyl]cyclohexanol, hydrochloride]			93	600
CN(C)C(c1ccccc1Br)C1CCCCC1(O)CCc1ccccc1F.Cl (centres unmarked) [Example 34, 2-[(2-bromophenyl)dimethylaminomethyl]-1-[2-(2-fluorophenyl)ethyl]cyclohexanol, hydrochloride]			95	400
Cc1ccccc1CCC1(O)CCCCC1C(c1ccccc1Cl)N(C)C.Cl (centres unmarked) [Example 35, 2-[(2-chlorophenyl)dimethylaminomethyl]-1-(2-o-tolylethyl)cyclohexanol, hydrochloride]			93	1800
CN(C)C(c1ccccc1Cl)C1CCCCC1(O)CCCc1ccccc1.Cl (centres unmarked) [Example 36, 2-[(2-chlorophenyl)dimethylaminomethyl]-1-(3-phenylpropyl)cyclohexanol, hydrochloride]			85	1900
